Assay: gradient 5% acetonitrile 3 min, to 50% in 2 min, to 85% in 15 min, held 3 min, 100 µL/min
Conditions: column: Zorbax Extend-C18 2.1 x 50 mm; eluents: water / acetonitrile, 0.1% formic acid
Method in brief: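 Pure standards were analyzed in mixtures of ~100 molecules using HPLC coupled to a quadrupole time-of-flight mass spectrometer, in both positive and negative ionization mode. Separation used a Zorbax Extend-C18 column (2.1 × 50 mm, 1.8 μm) at 100 μL/min, with water and acetonitrile each containing 0.1% formic acid. Dead and dwell volumes were 40 μL and 900 μL, and data were collected over 3 months. Retention time was read from computationally picked adduct peaks, each inspected manually.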

RP-LC retention time	SMILES
960 s	CCSc1nnc(-c2nn(C)c3c2CN(S(=O)(=O)Cc2ccccc2Cl)CC3)n1CC
811 s	CN1C(=O)c2cc(C(=O)NCCC3=CCCCC3)nn2CC1(C)C(=O)NCc1ccc(F)cc1 (centres undefined)
1100 s	Cc1nc(OCC(=O)N2CCc3ccccc32)c2c(-c3ccccc3)noc2n1
1090 s	CCOC(=O)C(=O)Nc1c(C(=O)Nc2cccc(Cl)c2)oc2ccccc12
836 s	CC(NC(=O)c1ccc2c(c1)nc1n2CCN(C2CCCCC2)C1=O)c1ccccc1 (centres undefined)
930 s	CC(C)c1csc(-c2csc(S(=O)(=O)NCc3ccc(N(C)C)cc3)c2)n1
717 s	CC(=O)N1CCc2cc(N3CC(C(=O)Nc4cc(C)ccc4C)CC3=O)ccc21 (centres undefined)
732 s	CCCN(CC1CCOC1)C(=O)Nc1ccc2c(c1)OCCO2 (centres undefined)
760 s	CC1=C(c2cccc(Cl)c2)S(=O)(=O)N=C1N1CCCN(C(=O)c2ccccn2)CC1
701 s	Cc1cc(C)c2nc(C)cc(C(=O)NCC(C)C)c2c1
953 s	CCOC(=O)c1ccc(OC(=O)c2cn(C)c(=O)c3ccccc23)cc1
736 s	COC(=O)CNC(=O)c1sc2ncccc2c1-n1cccc1
720 s	Cc1nc(-c2ccc(F)cc2)nc2c1CCC(=O)N2Cc1ccco1
622 s	CCc1nnc2nc(N3CCN(C(=O)C(C)Oc4ccccc4)CC3)cc(C)n12 (centres undefined)
714 s	CCOc1ccc(S(=O)(=O)N2CCN(c3cnn4c(C)nnc4c3)CC2)cc1
1040 s	CCc1cc(C(=O)Nc2ccc(OC)c(Cl)c2)nc2ccnn12
612 s	CC(C)n1cnc2cc(CNC(=O)c3c(F)cccc3F)ccc21
840 s	CCn1cc(-c2nc(CC(=O)NCc3ccccc3)cs2)c2cccnc21
620 s	Cc1ccc(-c2nccn3cc(C(=O)N4CCN(C(C)C)CC4)nc23)cc1
770 s	O=C(NCc1csc(-c2cccs2)n1)C1CCN(C(=O)c2ccc(F)c(F)c2)CC1
882 s	COc1ccc(OC)c(NC(=O)N2CC=C(c3cn(C)c4ncccc34)CC2)c1
645 s	COc1ccc(NC(=O)CCC2CCCN(c3cc(NC4CC4)ncn3)C2)cc1OC (centres undefined)

RP-LC retention time	SMILES
1040 s	CCOc1ccc(CNC(=O)C2CCCN(S(=O)(=O)c3ccc4c(ccn4CC)c3)C2)cc1 (centres undefined)
1090 s	Cc1cccc(-c2nc(N)n(C(=O)C(C)(C)C)n2)c1
881 s	Cc1ccc(CNC(=O)c2cc3c(s2)CCN(C(=O)c2ccccc2)C3)o1
1090 s	O=C(NCc1nc(-c2ccc(-c3csc(-c4ccccc4)n3)cc2)no1)c1ccco1
735 s	CCOC(=O)C(=O)NCc1ccccc1Cl
662 s	Cc1nn(C)c(C)c1S(=O)(=O)N1CCC(c2noc(-c3cccnc3)n2)C1 (centres undefined)
695 s	Cc1ccccc1Cn1ccnc1C(N)=O
806 s	COc1ccc(NS(=O)(=O)c2cc(-c3nnc(C(=O)N4CCCC4)o3)sc2C)cc1OC
655 s	CC1CCCN(CC(=O)Nc2nc(-c3ccccc3)cs2)C1 (centres undefined)
864 s	C=CCN(C(=O)C1CCCN(c2ncnc3c2nc2n3CCCCC2)C1)c1ccccc1 (centres undefined)
545 s	CC(NC(=O)c1ccc2ncnc(N3CCCCC3)c2c1)c1cccnc1 (centres undefined)
781 s	c1cc2c(cc1-c1nnc(C3CC3)o1)OCO2
1120 s	CCOc1nc2ccccc2nc1N1CCCC(C(=O)NC(C)c2ccccc2)C1 (centres undefined)
850 s	COc1cc(-n2c(=O)c3ccccc3n(Cc3ccccc3F)c2=O)cc(OC)c1OC
831 s	CO[C@H]1C(=O)N(C(C)C)[C@H]1C1CCN(S(=O)(=O)Cc2ccccc2F)CC1
750 s	COc1ccccc1CNC(=O)CCc1nnc2c3cc(-c4ccccc4)nn3ccn12
885 s	Cc1cccc(-c2nnc(-c3cccc(S(=O)(=O)N4CCOCC4)c3)o2)c1
906 s	CC1(C(=O)NCc2ccc(Cl)cc2)CN(S(C)(=O)=O)CC(=O)N1CCc1ccccc1 (centres undefined)
659 s	O=C(NCC1CCS(=O)(=O)C1)c1nc2ccccc2s1 (centres undefined)
740 s	CC(=O)N1CCc2cc(C)c(S(=O)(=O)NC(C)C)cc21
1110 s	Cc1cc(C)cc(NC(=O)N2CCCC2c2nc(-c3ccccc3C)no2)c1 (centres undefined)
583 s	O=C1c2cccc(NCCCNCCO)c2C(=O)c2cccc(NCCCNCCO)c21

RP-LC retention time	SMILES
807 s	Cc1ccc2c(Nc3ccc(C)c(F)c3)c(-c3nc(C)no3)cnc2n1
993 s	O=C(c1cccc2[nH]ccc12)N1CCCC1c1nc(-c2cccc(Cl)c2)no1 (centres undefined)
872 s	COc1ccc(C2Cn3nnc(C(=O)N4CCN(C(=O)c5cc(F)ccc5F)CC4)c3CO2)cc1 (centres undefined)
1030 s	CCOC(=O)COC(=O)c1cn(-c2ccc(F)cc2)c(=O)c2ccccc12
704 s	O=C(NC1CCCC1)C1CC(=O)N(c2ccc3c(c2)CCN3C(=O)C2CC2)C1 (centres undefined)
763 s	Cc1ccc(C(=O)N2CCC3(CC2)NC(=O)c2ccc(F)cc2N3C)cc1
662 s	Cc1ccc2nc(C)c(NC(=O)CSCc3ccccc3)c(=O)n2c1
922 s	CCc1ccc(NC(=O)C2CCCN(c3ccc(=O)n(-c4cccc(Cl)c4)n3)C2)cc1 (centres undefined)
976 s	Cn1nc(C(F)(F)F)cc1C(=O)N1CCCC1c1cccc(F)c1 (centres undefined)
688 s	Cn1c(=O)n([C@@H]2CCN(C(=O)c3ccc4c(c3)OCO4)C2)c2ncccc21
909 s	Cc1nc(-c2ccc(Cl)cc2)oc1COC(C)(C)C(=O)O
696 s	CN(CC1CCOCC1)C(=O)Nc1cc(F)ccc1F
752 s	Cc1ccc(C)c(Cn2nnc(C(=O)O)c2-c2ccccn2)c1
902 s	CCOC(=O)COc1cc(-c2ccc(C)cc2)nc2ccc(NC(=O)COc3ccccc3)cc12
796 s	CCOC(=O)c1csc(NC(=O)C2CCCN(c3cc(-n4cccn4)ncn3)C2)n1 (centres undefined)
699 s	COc1ccccc1N1CCN(C(=O)c2cc(C3CC3)[nH]n2)CC1
838 s	O=C(Nc1cccc(Cl)c1)C1CCc2nc(N3CCOCC3)ncc2C1 (centres undefined)
826 s	Cc1ccccc1S(=O)(=O)N1CCC(N2CCN(Cc3ccccc3)C(=O)C2=O)CC1
1140 s	Cc1nc2cc(-c3noc(-c4cccc(Cl)c4)n3)ccc2n(C)c1=O
703 s	O=C(OCc1ccncc1)c1cn(-c2ccc(F)cc2)c(=O)c2ccccc12
1220 s	Cc1ccc(S(=O)(=O)N2CCC(C)CC2)cc1-c1nnc(-c2ccc(F)cc2)o1
753 s	Cc1ccc(-c2nc3cnccn3c2Nc2ccc(C(=O)NCc3ccco3)cc2)cc1

RP-LC retention time	SMILES
641 s	O=C(NCc1cccs1)c1nc(N2CCOCC2)c2ccccc2n1
799 s	Cc1oc(-c2[nH]ncc2C(=O)N2CCCC2)cc1S(=O)(=O)NCCCc1ccccc1
549 s	O=C(NCc1ccccn1)c1c[nH]c2ncccc12
1210 s	CCOc1ccc(NC(=O)c2cc3oc(C)cc3n2Cc2ccc(C)cc2)cc1
1150 s	O=C(NC1CCCCCC1)C1CCCN(c2ncc(-c3ccc(F)cc3)cn2)C1 (centres undefined)
905 s	Cc1nc(C)c(C(=O)N2CCCC2c2nc(CCOCC3CCCC3)no2)s1 (centres undefined)
738 s	CCOC(=O)c1c(C)[nH]c(CCC(=O)NCc2ccc3c(c2)OCO3)c1C
638 s	COCCCNC(=O)c1c(OCC(C)C)cc(=O)n2c1CCCCC2
761 s	O=C(NCc1csc(C2CCN(C(=O)c3ccc(Cl)cc3)CC2)n1)C1CCC1
687 s	O=C(NCC(F)(F)F)C1CCN(C(=O)Cc2noc3ccccc23)CC1
565 s	CCn1c(=O)c(=O)n(CC(=O)NCCN2CCCCC2)c2cccnc21
603 s	CCCn1cc(C(=O)N2CCN(C3CCCCC3)CC2)c2cccnc21
822 s	CC(=O)N1CCc2cc(S(=O)(=O)CCC(=O)N3CCC(CCOc4ccccc4)C3)ccc21 (centres undefined)
857 s	CCc1cccc(C)c1NC(=O)Cn1c(N(C)Cc2ccccc2)nc(C)cc1=O
727 s	CCOc1cc(=O)n2c(c1C(=O)Nc1cc(OC)ccc1OC)CCCC2
737 s	CCOc1ccccc1C1NC(=O)N(CC(=O)NC2CCCC2)C2=C1C(=O)OC2 (centres undefined)
856 s	O=C(CC1CCCCC1)N1CCCC(COc2ccc(C(=O)N3CCOCC3)cc2)C1 (centres undefined)
836 s	COc1ccc(C)cc1NC(=O)C1CC(=O)N(c2ccc3c(c2)CCN3C(=O)C2CC2)C1 (centres undefined)
645 s	O=S(=O)(c1ccc2c(c1)OCCO2)N1CCC(CN2CCCCCC2)CC1
1060 s	COCc1nnc(NC(=O)c2ccccc2OCc2nc(-c3ccc(C)cc3)no2)s1
918 s	Cc1ncsc1CN1CCC(c2nc(-c3ccc(F)cc3)n[nH]2)CC1

SMILES	RP-LC retention time
Cc1ncc2c(n1)C[C@@H]1CC[C@H]2N1C(=O)c1ccc2c(c1)OCO2	639 s
COc1ccc2c(c1)C1(CCN(S(=O)(=O)c3cccc(C)c3)C1)C(=O)N2C (centres undefined)	941 s
